Assay results from ChEMBL document CHEMBL1152690, “The spirocyclopropyl moiety as a methyl surrogate in the structure of l-fucosidase and l-rhamnosidase inhibitors” (Bioorg Med Chem, 2009).
Activity calls are given as the source filed them. No cut-off for these calls is given here.

Tests used:
[1] = Inhibition of Penicillium decumbens Alpha-L-rhamnosidase by para-nitrophenolate release assay
[2] = molecular target: T1, Tissue alpha-L-fucosidase (Bos taurus, UniProt Q2KIM0); test: Inhibition of bovine kidney alpha-L-fucosidase by para-nitrophenolate release assay
T1 sequence (Q2KIM0 whole entry): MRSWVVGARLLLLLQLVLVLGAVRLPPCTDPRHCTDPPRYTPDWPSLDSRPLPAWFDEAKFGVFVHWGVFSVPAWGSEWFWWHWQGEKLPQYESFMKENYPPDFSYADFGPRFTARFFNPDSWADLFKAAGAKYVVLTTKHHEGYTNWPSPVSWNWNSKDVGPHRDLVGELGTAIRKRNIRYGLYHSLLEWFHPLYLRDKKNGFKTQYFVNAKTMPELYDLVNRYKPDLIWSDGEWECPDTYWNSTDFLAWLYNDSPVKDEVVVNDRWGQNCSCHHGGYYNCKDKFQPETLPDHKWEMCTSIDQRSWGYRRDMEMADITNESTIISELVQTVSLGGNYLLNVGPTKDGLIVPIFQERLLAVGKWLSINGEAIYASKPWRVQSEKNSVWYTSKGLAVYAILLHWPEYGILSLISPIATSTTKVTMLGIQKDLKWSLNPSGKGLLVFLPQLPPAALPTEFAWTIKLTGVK

[3] = molecular target: T2, Tissue alpha-L-fucosidase (Bos taurus) (UniProt Q2KIM0); test: Inhibition of bovine kidney alpha-L-fucosidase at 1 mM by para-nitrophenolate release assay
T2 sequence (whole entry): T1 sequence (Q2KIM0 whole entry)

Penicillium decumbens [4] = test: Inhibition of Penicillium decumbens Alpha-L-rhamnosidase at 1 mM by para-nitrophenolate release assay
Coffea arabica = test: Inhibition of coffee bean alpha-galactosidase at 1 mM
[5] = molecular target: Beta-galactosidase (Escherichia coli) (UniProt Q8VNN2); test: Inhibition of Escherichia coli beta-galactosidase at 1 mM
[6] = molecular target: T3, Beta-galactosidase (Aspergillus oryzae) (UniProt Q2U7N3); test: Inhibition of Aspergillus oryzae beta-galactosidase at 1 mM
T3 sequence (whole entry): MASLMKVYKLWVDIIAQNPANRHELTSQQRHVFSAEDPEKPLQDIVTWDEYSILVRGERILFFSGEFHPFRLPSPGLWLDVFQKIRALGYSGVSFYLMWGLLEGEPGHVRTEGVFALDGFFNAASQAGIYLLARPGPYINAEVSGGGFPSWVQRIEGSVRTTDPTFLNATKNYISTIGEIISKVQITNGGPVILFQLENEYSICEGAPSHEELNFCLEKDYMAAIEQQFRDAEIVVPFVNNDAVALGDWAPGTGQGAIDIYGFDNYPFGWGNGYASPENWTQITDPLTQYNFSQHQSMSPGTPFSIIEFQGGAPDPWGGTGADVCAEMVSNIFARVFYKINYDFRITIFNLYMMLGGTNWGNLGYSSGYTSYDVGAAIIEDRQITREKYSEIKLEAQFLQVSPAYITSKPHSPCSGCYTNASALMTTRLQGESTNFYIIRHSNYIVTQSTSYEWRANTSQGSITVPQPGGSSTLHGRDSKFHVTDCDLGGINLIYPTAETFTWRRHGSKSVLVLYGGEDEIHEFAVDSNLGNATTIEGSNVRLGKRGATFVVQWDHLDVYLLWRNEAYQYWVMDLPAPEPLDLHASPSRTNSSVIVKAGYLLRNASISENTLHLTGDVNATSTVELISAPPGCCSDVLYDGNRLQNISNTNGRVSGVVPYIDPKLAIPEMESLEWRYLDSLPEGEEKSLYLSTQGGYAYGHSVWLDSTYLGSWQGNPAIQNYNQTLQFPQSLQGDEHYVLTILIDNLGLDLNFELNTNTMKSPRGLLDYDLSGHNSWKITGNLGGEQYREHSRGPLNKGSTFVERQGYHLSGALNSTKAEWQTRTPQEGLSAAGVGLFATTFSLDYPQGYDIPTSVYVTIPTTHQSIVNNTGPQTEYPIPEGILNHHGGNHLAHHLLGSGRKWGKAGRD

Saccharomyces cerevisiae = test: Inhibition of yeast alpha-glucosidase at 1 mM
Oryza sativa = test: Inhibition of rice alpha-glucosidase at 1 mM
Aspergillus niger [7] = test: Inhibition of Aspergillus niger amyloglucosidase at 1 mM
Prunus dulcis = test: Inhibition of almond beta-glucosidase at 1 mM
Canavalia ensiformis [8] = test: Inhibition of jack bean alpha-mannosidase at 1 mM
Helix pomatia = test: Inhibition of snail beta-mannosidase at 1 mM
Aspergillus niger [9] = test: Inhibition of Aspergillus niger beta-xylosidase at 1 mM
Canavalia ensiformis [10] = test: Inhibition of jack bean beta-N-acetylglucosaminidase at 1 mM
Bos taurus = species: Bos taurus; test: Inhibition of bovine kidney beta-N-acetylglucosaminidase at 1 mM
Penicillium decumbens [11] = test: Inhibition of Penicillium decumbens lysosomal Alpha-L-rhamnosidase at 1 mM by para-nitrophenolate release assay
[12] = molecular target: T2, Tissue alpha-L-fucosidase (Bos taurus); conditions: 1 mM
Description: Inhibition of bovine lysosomal alpha-L-fucosidase at 1 mM by para-nitrophenolate release assay

Sequence of Beta-galactosidase (Escherichia coli) (Q8VNN2 whole entry, looked up): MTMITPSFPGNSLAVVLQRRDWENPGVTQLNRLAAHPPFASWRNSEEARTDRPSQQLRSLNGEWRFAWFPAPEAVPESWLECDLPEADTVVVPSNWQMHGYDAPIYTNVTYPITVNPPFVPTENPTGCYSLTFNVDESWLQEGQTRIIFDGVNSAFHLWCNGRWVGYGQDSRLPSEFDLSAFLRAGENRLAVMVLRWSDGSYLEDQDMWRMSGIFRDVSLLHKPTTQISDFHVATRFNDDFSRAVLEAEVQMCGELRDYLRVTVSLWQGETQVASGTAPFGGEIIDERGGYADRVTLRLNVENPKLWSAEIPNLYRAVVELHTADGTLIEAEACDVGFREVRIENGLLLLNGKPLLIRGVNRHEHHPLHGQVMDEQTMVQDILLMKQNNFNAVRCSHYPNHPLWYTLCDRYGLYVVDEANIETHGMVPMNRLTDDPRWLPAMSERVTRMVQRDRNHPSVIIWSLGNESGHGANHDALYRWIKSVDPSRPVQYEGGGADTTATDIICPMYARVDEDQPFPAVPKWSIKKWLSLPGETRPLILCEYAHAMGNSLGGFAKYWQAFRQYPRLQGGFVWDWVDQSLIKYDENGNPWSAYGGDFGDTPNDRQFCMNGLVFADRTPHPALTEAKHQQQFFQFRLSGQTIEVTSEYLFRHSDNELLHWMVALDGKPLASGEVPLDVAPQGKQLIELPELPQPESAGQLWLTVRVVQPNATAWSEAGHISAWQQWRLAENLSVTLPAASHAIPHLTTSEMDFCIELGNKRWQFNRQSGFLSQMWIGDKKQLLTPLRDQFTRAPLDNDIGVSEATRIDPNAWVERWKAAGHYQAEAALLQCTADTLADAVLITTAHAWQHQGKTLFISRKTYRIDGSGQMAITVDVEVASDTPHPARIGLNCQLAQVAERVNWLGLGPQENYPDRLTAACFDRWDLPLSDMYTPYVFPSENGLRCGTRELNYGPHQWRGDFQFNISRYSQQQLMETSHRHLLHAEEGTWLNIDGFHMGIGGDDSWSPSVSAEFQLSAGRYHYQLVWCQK

| Compound | Ki [1] [µM] | Ki [2] [µM] | inhibition [3] | inhibition (Penicillium decumbens [4]) | inhibition (Coffea arabica) | inhibition [5] | inhibition [6] | inhibition (Saccharomyces cerevisiae) | inhibition (Oryza sativa) | inhibition (Aspergillus niger [7]) | inhibition (Prunus dulcis) | inhibition (Canavalia ensiformis [8]) | inhibition (Helix pomatia) | inhibition (Aspergillus niger [9]) | inhibition (Canavalia ensiformis [10]) | inhibition (Bos taurus) | also measured |
| --- | --- | --- | --- | --- | --- | --- | --- | --- | --- | --- | --- | --- | --- | --- | --- | --- | --- |
| COc1ccc(C[C@@H]2NC[C@H](O)[C@H]2O)cc1 | 3 | – | – | – | – | – | – | – | – | – | – | – | – | – | – | – | – |
| C[C@@H]1N=C[C@H](O)[C@@H]1O | – | 0.01 | – | – | – | – | – | – | – | – | – | – | – | – | – | – | – |
| C[C@@H]1NC[C@H](O)[C@H]1O | 5.5 | – | – | – | – | – | – | – | – | – | – | – | – | – | – | – | – |
| C[C@H]1NC[C@H](O)[C@H](O)[C@H]1O | 1 | 1 | 99% | – | – | – | – | – | – | – | – | – | – | – | – | – | – |
| C[C@@H]1N[C@@H](O)[C@@H](O)[C@H](O)[C@@H]1O | – | 0.001 | – | – | – | – | – | – | – | – | – | – | – | – | – | – | – |
| COc1ccc(C[C@@H]2NC[C@@H](O)[C@H]2O)cc1 | 3.2 | – | – | – | – | – | – | – | – | – | – | – | – | – | – | – | – |
| C[C@@H]1C[C@H](O)C2[C@@H](O)[C@@H](O)CN2C1 (single isomer, unassigned) | 0.03 | – | – | – | – | – | – | – | – | – | – | – | – | – | – | – | – |
| C[C@@H]1NC[C@H](O)[C@H](O)[C@H]1O | – | – | – | 0% | – | – | – | – | – | – | – | – | – | – | – | – | inhibition (Penicillium decumbens [11]): inactive; inhibition [12]: inactive |

The next lines start with results.

| Ki [1] [µM] | Ki [2] [µM] | inhibition [3] | inhibition (Penicillium decumbens [4]) | inhibition (Coffea arabica) | inhibition [5] | inhibition [6] | inhibition (Saccharomyces cerevisiae) | inhibition (Oryza sativa) | inhibition (Aspergillus niger [7]) | inhibition (Prunus dulcis) | inhibition (Canavalia ensiformis [8]) | inhibition (Helix pomatia) | inhibition (Aspergillus niger [9]) | inhibition (Canavalia ensiformis [10]) | inhibition (Bos taurus) | Compound | also measured |
| --- | --- | --- | --- | --- | --- | --- | --- | --- | --- | --- | --- | --- | --- | --- | --- | --- | --- |
| – | – | inactive | 72% | inactive | inactive | inactive | inactive | inactive | inactive | inactive | inactive | inactive | inactive | inactive | inactive | O[C@@H]1[C@@H](O)C2(CC2)NC[C@@H]1O | – |
| 57 | – | 76% | 87% | inactive | inactive | inactive | inactive | inactive | inactive | inactive | inactive | inactive | inactive | inactive | inactive | O[C@H]1C=NC2(CC2)[C@H]1O | – |
| 0.14 | – | – | – | – | – | – | – | – | – | – | – | – | – | – | – | C[C@@H]1N=C[C@H](O)[C@H]1O | – |
| – | – | 19% | 72% | inactive | inactive | inactive | inactive | inactive | inactive | inactive | inactive | inactive | inactive | inactive | inactive | O[C@@H]1[C@@H](O)C=NC12CC2 | – |
| – | 18 | 83% | inactive | inactive | inactive | inactive | inactive | inactive | inactive | inactive | inactive | inactive | inactive | inactive | inactive | O[C@H]1[C@H](O)CNC2(CC2)[C@H]1O | – |
